Results from PubChem BioAssay (NCI).
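Five compound concentrations were applied to cells in 96-well plates for 48 hours; endpoints were derived by simple linear interpolation of the resulting dose-response curve. GI50 = concentration required for 50% inhibition of growth. The concentration for full growth arrest is given as TGI.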

Tests used:
Assay in all cases: NCI-60 cell line screen, 48 h
[1] = test system: 786-0 renal
[2] = test system: A498 renal
[3] = test system: A549 NSCLC
[4] = test system: ACHN renal
[5] = test system: BT-549 breast
[6] = test system: CAKI-1 renal
[7] = test system: CCRF-CEM leukemia
[8] = test system: COLO 205 colon
[9] = test system: DU-145 prostate
[10] = test system: EKVX NSCLC
[11] = test system: HCC-2998 colon
[12] = test system: HCT-116 colon
[13] = test system: HCT-15 colon
[14] = test system: HL-60(TB) leukemia
[15] = test system: HOP-62 NSCLC
[16] = test system: HOP-92 NSCLC
[17] = test system: HS 578T breast
[18] = test system: HT29 colon
[19] = test system: IGROV1 ovarian
[20] = test system: K-562 leukemia
[21] = test system: KM12 colon
[22] = test system: LOX IMVI melanoma
[23] = test system: M14 melanoma
[24] = test system: MALME-3M melanoma
[25] = test system: MCF7 breast
[26] = test system: MDA-MB-231 breast
[27] = test system: MDA-MB-435
[28] = test system: MDA-MB-468 breast
[29] = test system: MOLT-4 leukemia
[30] = test system: NCI-H226 lung
[31] = test system: NCI-H23 lung
[32] = test system: NCI-H460 lung
[33] = test system: NCI-H522 lung
[34] = test system: NCI/ADR-RES ovarian
[35] = test system: OVCAR-3 ovarian
[36] = test system: OVCAR-4 ovarian
[37] = test system: OVCAR-5 ovarian
[38] = test system: OVCAR-8 ovarian
[39] = test system: PC-3 prostate
[40] = test system: RPMI-8226 leukemia
[41] = test system: RXF 393 renal
[42] = test system: SF-268 CNS
[43] = test system: SF-295 CNS
[44] = test system: SF-539 CNS
[45] = test system: SK-MEL-2 melanoma
[46] = test system: SK-MEL-28 melanoma
[47] = test system: SK-MEL-5 melanoma
[48] = test system: SK-OV-3 ovarian
[49] = test system: SN12C renal
[50] = test system: SNB-19 CNS
[51] = test system: SNB-75 CNS
[52] = test system: SR leukemia
[53] = test system: SW-620 colon
[54] = test system: T-47D breast
[55] = test system: TK-10 renal
[56] = test system: U251 CNS
[57] = test system: UACC-257 melanoma
[58] = test system: UACC-62 melanoma
[59] = test system: UO-31 renal

Work on `CC1(C)CC[C@]2(C(=O)O)CC[C@]3(C)C(=CCC4[C@@]5(C)C[C@@H](O)[C@@H]6OC(c7ccccc7F)OC[C@@]6(C)C5CC[C@]43C)C2C1` (stereo partly drawn) yielded a GI50 [1] of 4.4 µM, a TGI [1] of 16 µM and a GI50 [2] of 7.09 µM. For the same compound, the TGI [2] was 20.2 µM, the GI50 [3] was 1.62 µM and the TGI [3] was 12.3 µM. It also gave a GI50 [4] of 2.83 µM, a TGI [4] of 12.3 µM and a GI50 [5] of 2.84 µM. The TGI [5] was 11.3 µM, the GI50 [6] was 3.8 µM and the TGI [6] was 14.4 µM. For the same compound, the GI50 [7] was 2.53 µM, the TGI [7] was 12.6 µM and the GI50 [8] was 2.73 µM. For the same compound, the TGI [8] was 8.52 µM, the GI50 [9] was 6.27 µM and the TGI [9] was 19.8 µM. It also gave a GI50 [10] of 3.16 µM, a TGI [10] of 14.5 µM and a GI50 [11] of 3.49 µM. For the same compound, the TGI [11] was 14.1 µM, the GI50 [12] was 2.75 µM and the TGI [12] was 11.7 µM. For the same compound, the GI50 [13] was 2.14 µM, the TGI [13] was 10.9 µM and the GI50 [14] was 2.67 µM. The TGI [14] was 9.82 µM, the GI50 [15] was 3.61 µM and the TGI [15] was 15 µM. For the same compound, the GI50 [16] was 2.65 µM, the TGI [16] was 11.9 µM and the GI50 [17] was 3.5 µM. The TGI [17] was 16.2 µM, the GI50 [18] was 3.6 µM and the TGI [18] was 17.2 µM. It also gave a GI50 [19] of 5.54 µM, a TGI [19] of 18.1 µM and a GI50 [20] of 2.66 µM. It also gave a TGI [20] of 84.2 µM, a GI50 [21] of 3.7 µM and a TGI [21] of 15.1 µM. It also gave a GI50 [22] of 3.49 µM, a TGI [22] of 14.2 µM and a GI50 [23] of 6.64 µM. For the same compound, the TGI [23] was 20.6 µM, the GI50 [24] was 5.08 µM and the TGI [24] was 17.9 µM. It also gave a GI50 [25] of 3.42 µM, a TGI [25] of 14.6 µM and a GI50 [26] of 9.03 µM. For the same compound, the TGI [26] was 21.3 µM, the GI50 [27] was 5.58 µM and the TGI [27] was 18.6 µM. For the same compound, the GI50 [28] was 3.37 µM, the TGI [28] was 14 µM and the GI50 [29] was 2.09 µM. For the same compound, the TGI [29] was 12 µM, the GI50 [30] was 3.3 µM and the TGI [30] was 15.1 µM. It also gave a GI50 [31] of 3.97 µM, a TGI [31] of 15.7 µM and a GI50 [32] of 3.67 µM. The TGI [32] was 14.1 µM, the GI50 [33] was 3.79 µM and the TGI [33] was 16.8 µM. It also gave a GI50 [34] of 3.11 µM, a TGI [34] of 14.5 µM and a GI50 [35] of 3.23 µM. The TGI [35] was 13.1 µM, the GI50 [36] was 5.19 µM and the TGI [36] was 19.4 µM. The GI50 [37] was 9.04 µM, the TGI [37] was 21.1 µM and the GI50 [38] was 3.41 µM. For the same compound, the TGI [38] was 15.6 µM, the GI50 [39] was 3.21 µM and the TGI [39] was 18.3 µM. For the same compound, the GI50 [40] was 2.09 µM, the TGI [40] was 16.1 µM and the GI50 [41] was 2.54 µM. The TGI [41] was 7.92 µM, the GI50 [42] was 5.04 µM and the TGI [42] was 20.7 µM. The GI50 [43] was 2.72 µM, the TGI [43] was 13 µM and the GI50 [44] was 3.65 µM. For the same compound, the TGI [44] was 13 µM, the GI50 [45] was 4.83 µM and the TGI [45] was 20 µM. The GI50 [46] was 5.96 µM, the TGI [46] was 18.4 µM and the GI50 [47] was 3.39 µM. It also gave a TGI [47] of 12.7 µM, a GI50 [48] of 4.51 µM and a TGI [48] of 17.4 µM. For the same compound, the GI50 [49] was 3.57 µM, the TGI [49] was 15.7 µM and the GI50 [50] was 3.75 µM. The TGI [50] was 15.8 µM, the GI50 [51] was 2.77 µM and the TGI [51] was 15 µM. For the same compound, the GI50 [52] was 3.29 µM, the TGI [52] was 21.9 µM and the GI50 [53] was 4.34 µM. It also gave a TGI [53] of 16.4 µM, a GI50 [54] of 6.64 µM and a TGI [54] of 24.7 µM. The GI50 [55] was 6.03 µM, the TGI [55] was 19.8 µM and the GI50 [56] was 2.63 µM. The TGI [56] was 12.9 µM, the GI50 [57] was 4.68 µM and the TGI [57] was 18.2 µM. For the same compound, the GI50 [58] was 5.02 µM, the TGI [58] was 18 µM and the GI50 [59] was 2.53 µM. The TGI [59] was 13.5 µM.
